The record followed here is PubChem BioAssay (NCI).

Among the test systems are M14 melanoma; 786-0 renal; SK-MEL-5 melanoma; SK-MEL-2 melanoma; HT29 colon; ACHN renal; SF-295 CNS; RPMI-8226 leukemia; HCC-2998 colon; BT-549 breast.
Holding throughout (experiment): NCI anticancer screen, dose series, 48 h

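Results reflect a 48-hour exposure of cells in 96-well plates to compound at five concentrations. GI50: concentration for 50% inhibition of growth. TGI denotes the concentration required for complete inhibition of growth.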

Take `C=C1c2[nH]c3ccccc3c2CC(C(=O)O)N1C(O)c1ccc(S(=O)(=O)O)cc1` (stereo not drawn): the TGI in the experiment with M14 melanoma, in the experiment on 786-0 renal, in the experiment on SK-MEL-5 melanoma, in the experiment on SK-MEL-2 melanoma, in the experiment with HT29 colon and in the experiment with ACHN renal was over 100 µM in each case. Moreover, the TGI in the experiment on SF-295 CNS, in the experiment with RPMI-8226 leukemia and in the experiment with HCC-2998 colon was over 100 µM in each case.
In the case of `Cn1c(=O)c2[nH]c(CCCc3ccc([N+](=O)[O-])cc3)nc2n(C)c1=O`, the TGI in the experiment on M14 melanoma, in the experiment with 786-0 renal, with SK-MEL-5 melanoma, in the experiment on SK-MEL-2 melanoma, with HT29 colon and in the experiment on ACHN renal was over 100 µM throughout. In addition, the TGI in the experiment with SF-295 CNS, in the experiment with BT-549 breast and in the experiment with RPMI-8226 leukemia was over 100 µM in each case.
As to `O=C(Nc1ccc(I)cc1)c1cccc([N+](=O)[O-])c1O`, the GI50 with M14 melanoma is 3.54 µM; in the experiment on 786-0 renal, 3.53 µM; with SK-MEL-2 melanoma, 2.6 µM; with HT29 colon it was 4.84 µM; with ACHN renal, 4.16 µM; with SF-295 CNS, 2.39 µM. The GI50 with BT-549 breast was 3.01 µM; in the experiment with RPMI-8226 leukemia, 1.66 µM; with HCC-2998 colon, 4.19 µM. The TGI is 49.5 µM with M14 melanoma; 24.2 µM in the experiment with 786-0 renal; 8.79 µM with SK-MEL-2 melanoma; over 100 µM with HT29 colon; over 100 µM in the experiment with ACHN renal; 11.3 µM with SF-295 CNS. Further, the TGI with BT-549 breast was found to be 19 µM; in the experiment with RPMI-8226 leukemia, 6.73 µM; with HCC-2998 colon it was 44.3 µM.
As for `O=c1c(O)cc2c(O)oc3c(=O)c(O)c(O)c4c(O)oc1c2c43`, the TGI with M14 melanoma, in the experiment with 786-0 renal, in the experiment on SK-MEL-5 melanoma, in the experiment with SK-MEL-2 melanoma, in the experiment with HT29 colon and in the experiment with ACHN renal was over 100 µM each time. Besides, the TGI in the experiment on SF-295 CNS was 50.4 µM; with RPMI-8226 leukemia, over 100 µM; in the experiment on HCC-2998 colon it was over 100 µM.
With `O=C([O-])CCc1ccccc1.O=C([O-])CCc1ccccc1.O=C([O-])CCc1ccccc1.O=C([O-])CCc1ccccc1.[Mo+2].[Mo+2]`, the GI50 in the experiment with M14 melanoma, in the experiment on 786-0 renal, in the experiment on SK-MEL-5 melanoma, in the experiment on SK-MEL-2 melanoma, in the experiment on HT29 colon and with ACHN renal was over 100 µM throughout. Besides, the GI50 in the experiment on SF-295 CNS, in the experiment on RPMI-8226 leukemia and in the experiment with HCC-2998 colon was over 100 µM in each case. The TGI in the experiment with M14 melanoma, in the experiment with 786-0 renal, in the experiment on SK-MEL-5 melanoma, with SK-MEL-2 melanoma, in the experiment with HT29 colon and with ACHN renal was over 100 µM in each case. The TGI with SF-295 CNS, with RPMI-8226 leukemia and with HCC-2998 colon was over 100 µM throughout.
As to `CC(C)OCc1cc(CN2CCN(c3cccc(Cl)c3)CC2)c(O)c2ncccc12`, the GI50 in the experiment with 786-0 renal was 0.785 µM; in the experiment on SK-MEL-5 melanoma, 0.445 µM; in the experiment on SK-MEL-2 melanoma, 1.74 µM; with HT29 colon it was 6.76 µM; in the experiment on ACHN renal, 0.332 µM; in the experiment with SF-295 CNS, 1.07 µM. The results for the GI50 in the experiment on BT-549 breast, in the experiment with RPMI-8226 leukemia and in the experiment with HCC-2998 colon were 3.26 µM, 0.558 µM and 0.92 µM, respectively. Moreover, the TGI amounted to 9.56 µM with 786-0 renal; 2.1 µM with SK-MEL-5 melanoma; 7.07 µM in the experiment on SK-MEL-2 melanoma; 21.8 µM with HT29 colon; 12.4 µM in the experiment on ACHN renal; 11.6 µM in the experiment on SF-295 CNS. In addition, the TGI turned out to be 19.8 µM with BT-549 breast, 13.3 µM with RPMI-8226 leukemia and 11.3 µM with HCC-2998 colon.
Consider `O=C(O)CNCCc1ccccc1`, for which the TGI in the experiment on M14 melanoma, in the experiment on 786-0 renal, in the experiment on SK-MEL-5 melanoma, in the experiment on SK-MEL-2 melanoma, in the experiment on HT29 colon and in the experiment on ACHN renal was over 100 µM each time. Besides, the TGI in the experiment with SF-295 CNS, in the experiment with BT-549 breast and in the experiment on RPMI-8226 leukemia was over 100 µM in each case.
With `N#CC(/C(=N/NC(N)=S)C(=O)Nc1cccc(Cl)c1)c1ccccc1` (stereo not drawn), the TGI in the experiment on M14 melanoma, with 786-0 renal, with SK-MEL-5 melanoma, in the experiment with SK-MEL-2 melanoma, in the experiment with HT29 colon and with ACHN renal was over 100 µM in each case. Also, the TGI with SF-295 CNS, with RPMI-8226 leukemia and with HCC-2998 colon was over 100 µM in each case.
With `Brc1ccc(Nc2nc3ccccc3nc2Nc2ccc(Br)cc2)cc1`, the GI50 was 1.73 µM in the experiment with 786-0 renal; 1.56 µM in the experiment with SK-MEL-5 melanoma; 2.26 µM in the experiment on SK-MEL-2 melanoma; 0.404 µM with HT29 colon; 0.583 µM in the experiment with ACHN renal; 1.44 µM in the experiment with SF-295 CNS. In addition, the GI50 was 2.44 µM in the experiment with BT-549 breast, 0.756 µM in the experiment on RPMI-8226 leukemia and 1.66 µM with HCC-2998 colon. Also, the TGI in the experiment with 786-0 renal turned out to be 5.9 µM; in the experiment on SK-MEL-5 melanoma it was 3.11 µM; with SK-MEL-2 melanoma it was 5.48 µM; in the experiment on HT29 colon it was 10.9 µM; with ACHN renal it was 3.22 µM; in the experiment with SF-295 CNS, 4.22 µM. For the same molecule, the TGI is 7.98 µM in the experiment on BT-549 breast, 5.87 µM in the experiment on RPMI-8226 leukemia and 7.7 µM in the experiment with HCC-2998 colon.
Regarding `O=c1[nH]c(F)nc2c1ncn2C1OC(CO)C(O)C1O` (stereo not drawn), the GI50 with M14 melanoma, in the experiment with 786-0 renal, in the experiment on SK-MEL-5 melanoma, with ACHN renal, with SF-295 CNS and in the experiment on BT-549 breast was over 100 µM in each case. Besides, the GI50 with RPMI-8226 leukemia and in the experiment on HCC-2998 colon was over 100 µM in each case. Besides, the TGI in the experiment on M14 melanoma, in the experiment with 786-0 renal, in the experiment on SK-MEL-5 melanoma, in the experiment with ACHN renal, in the experiment on SF-295 CNS and in the experiment on BT-549 breast was over 100 µM throughout. The TGI with RPMI-8226 leukemia and in the experiment on HCC-2998 colon was over 100 µM throughout.
